Measured values reported in US20040072915A1, “Novel medicines based on sesquiterpene mixtures” (priority 2000, published 2004).

System: MCF7 cells
Assay: Cell counts of MCF7 cells in culture with F, B or F+B (Example 1)
Format: cell-based
Protocol: Cells of line MCF7 are rapidly growing mammary adenocarcinoma cells. The doses tested in the study were 0.1.10^-3 and 0.5.10^-3 M. 1/100 dilutions were made in RPMT just before use and mixed to obtain a homogeneous emulsion at the moment of use. The mean number of cells inoculated was about 10^6 in each test. Test one: search for an effect on MCF7 cells at the dose of 0.5 mM. At the 11th transfer, the following were inoculated one bottle of MCF7 cells for growth, one bottle of MCF7 cells for the control, one bottle with the same number of calls +(F) at 0.5 mM, one bottle with the same number of cells +(F+B) at 0.5 mM, one bottle with the same number of cells +(B) at 0.5 mM. Bottles were placed in the incubator with caps unscrewed and the medium was changed every two days. On day 8, the cells were washed with 5 ml of PBS and freed from the substrate with PBS-EDTA, […] of RPMI+10% FCS and counted with a Malassez counting chamber. Test two: search of an effect on MCF7 cells at a dose of 0.1 mM. Same procedure as above is used but cells were used at the 12th transfer, using 0.1 mM doses of (F), (F+B) and (B).

[1] = test one, dose 0.5 mM, MCF7 cells counted on day 8, about 10^6 cells inoculated

Compound | appearance of the culture bottle (adhering / floating dead cells) (test one, 0.5 mM, MCF7) | cell counts [1] | alteration of cell adherence in culture (test run at 0.1 mM, MCF7) | cell counts (test two (test at 0.1 mM), line printed as B at 0.5 mM) | appearance of the culture bottle (adhering / floating dead cells) (test two, 0.1 mM, MCF7) | cell counts (test two, dose 0.1 mM, MCF7 cells counted on day 8, about 10^6 cells inoculated)
CC(C)=CCC[C@](C)(O)[C@@H]1CC=C(C)CC1 [B, α-bisabolol] | few adhering cells and a large numbers of floating (dead) cells | 250 · 10^3 | slight | 8930 · 10^3 | adhering homogeneous layer of cells with several dead cells | 
CC(C)=CCCC(C)=CCCC(C)=CCO [F, Farnesol] | few adhering cells and a large number of floating (dead) cells | 370 · 10^3 |  |  | few adhering cells and a large numbers of floating (dead) cells | 385 · 10^3
